According to patent publication US9428536B2, “Immunostimulatory G, U-containing oligoribonucleotides” (Zoetis Belgium SA, priority 2002, dated 2016):
Oligonucleotides are written 5' to 3', each unit as a sugar letter and its base; * is a phosphorothioate linkage, no mark a phosphodiester; rarer units and linkages stand in square brackets, end groups in braces. Plain capitals give the bases only. d = 2'-deoxy (DNA); r = 2'-OH (RNA)

Tests used:
Type in all cases: cell-based
human PBMC [1] = test: Human PBMC IFN-α secretion, ELISA
Procedure: (§1) In order to investigate the possibility of using cholesteryl ester-modified RNA oligomer in place of RNA oligomer plus cationic lipid, RNA oligomer GUGUGUGU was prepared with (R 1058) and without (R 1006) a 3′ cholesteryl ester modification. These two RNA oligomers with and without DOTAP, were added over a range of concentrations to overnight cultures of human PBMC. Culture supernatants were harvested, and human TNF-α, IL-12 p40, and IFN-α were measured by ELISA using matched antibody pairs from BD-Pharmingen according to the manufacturer's protocol.
(§2) RNA oligomers GUGUGUGU, GUGUGUG, GUGUGU, GUGUG, GUGU, GUG, and GU, with and without DOTAP, were added over a range of concentrations to overnight cultures of human PBMC. Culture supernatants were harvested, and human TNF-α, IL-12 p40, and IFN-α were measured by ELISA using matched antibody pairs from BD-Pharmingen according to the manufacturer's protocol.
as §2, with “oligomers,” for “oligomers GUGUGUGU, GUGUGUG, GUGUGU, GUGUG, GUGU, GUG, and GU,”
In like manner, an all-phosphodiester 40-mer capable of forming a stem-loop structure and having a base sequence as provided by 5′-[…]-3′ (R 1041; SEQ ID NO:10) was synthesized and tested in overnight culture with human PBMC.

human PBMC [2] = test: Human PBMC TNF-α secretion, ELISA; conditions: for TNF response of human PBMC: FIG. 15, 30 μM; for TNF-α response of human PBMC (in words): Example 1, FIG. 2, RNA 50 μg/ml; for TNF-α response of human PBMC (in words) / dose-response of TNF-α secretion: 16 hours; for dose-response of TNF-α secretion: Example 2, 10, 3 or 1 μg RNA with 10 μg DOTAP per 200 μl well
Procedure: (§3) Human peripheral blood mononuclear cells (PBMCs) were isolated from healthy donors, plated at 3×10^5 cells/well, stimulated in vitro with various test and control immunostimulatory agents for 16 hours, and then analyzed by enzyme-linked immunosorbent assay (ELISA) using matched antibody pairs from BD-Pharmingen for secreted cytokines IL-12 p40 and TNF-α, performed according to the manufacturer's protocol. Also included were certain negative controls, including medium alone and DOTAP (10 μg/200 μl culture well; “Liposomes”) alone. The control immunostimulatory agents included the imidazoquinolone R-848 (2 μg/ml), lipopolysaccharide (LPS; 1 μg/ml), Pam3Cys (5 μg/ml), poly IC (50 μg/ml), and CpG DNA (50 μg/ml). These are reported ligands for TLR7, TLR4, TLR2, TLR3, and TLR9, respectively. Test immunostimulatory agents included the following RNA molecules, each at 50 μg/ml, with and without DOTAP (10 μg total “with Liposomes” and “without Liposomes”, respectively): GUGUUUAC alone; GUAGGCAC alone; GUGUUUAC in combination with GUAGGCAC; GUAGGA; GAAGGCAC; CUAGGCAC; CUCGGCAC; and CCCCCCCC. These RNA oligonucleotides each contained a phosphorothioate linkage between the penultimate and 3′ terminal nucleoside.
(§4) The experiments described in the preceding example were repeated with varied concentrations of RNA oligonucleotides in order to assess the dose-response behavior of human PBMCs to G,U-containing RNA oligonucleotides of the invention. A total of 10, 3 or 1 μg RNA was added to 10 μg DOTAP and then added to the 200 μl culture wells. After 16 hours IL-12 p40 and TNF-α ELISAs were performed as described in Example 1.
as §1, §2
as §2, with “oligomers,” for “oligomers GUGUGUGU, GUGUGUG, GUGUGU, GUGUG, GUGU, GUG, and GU,”
Human PBMC were cultured overnight in the presence of added DNA:RNA conjugate, with and without DOTAP. Culture supernatants were harvested and human TNF-α, IL-6, IL-12 p40, IP-10, and IFN-α were measured by ELISA using matched antibody pairs from BD-Pharmingen according to the manufacturer's protocol.
Human PBMC were cultured overnight in the presence of various concentrations (1, 3, and 10 μg/ml) of tRNA obtained from wheat germ, bovine, yeast, and E. coli sources, added to the culture medium with and without DOTAP. Culture supernatants were harvested and human TNF-α and IL-12 p40 were measured by ELISA using matched antibody pairs from BD-Pharmingen according to the manufacturer's protocol. […] In addition, E. coli tRNA at 3 and 10 μg/ml induced minor amounts of both cytokines even without DOTAP. […]
FIG. 10 depicts the responsiveness of human PBMC to stringent response factor (SRF). SRF is produced by rapidly growing bacteria (in this case Listeria monocytogenes) in rich media until their late log phase. The bacteria were pelleted and resuspended in an equal volume of PBS for 24 h. The mixture is centrifuged to remove the bacteria. […]

human PBMC [3] = test: Human PBMC IL-12 p40 secretion, ELISA; conditions: for IL-12 p40 response of human PBMC (in words): Example 1, FIG. 1, RNA 50 μg/ml with and without DOTAP, R-848 2 μg/ml, LPS 1 μg/ml, Pam3Cys 5 μg/ml, poly IC 50 μg/ml; for IL-12 p40 response of human PBMC (in words) / dose-response of IL-12 p40 secretion: 16 hours; for dose-response of IL-12 p40 secretion: Example 2, FIG. 3, 10, 3 or 1 μg RNA with 10 μg DOTAP per 200 μl well; for EC50 / IL-12 p40 max: Table 2, oligomer length, human PBMC overnight, including DOTAP
Procedure: as §3
as §4, with “1. […]” for “1.”
as §2, with “protocol. […]” for “protocol.”

[4] = Table 1, human PBMC overnight culture, with DOTAP
[5] = Table 1, human PBMC overnight culture, with DOTAP, read-out: TNF-α + DOTAP EC50
[6] = Table 1, human PBMC overnight culture, without DOTAP
[7] = Table 1, human PBMC overnight culture, without DOTAP, read-out: TNF-α − DOTAP EC50
[8] = Table 2, oligomer length, human PBMC overnight, including DOTAP
[9] = Table 2, oligomer length, human PBMC overnight, including DOTAP, read-out: TNF-α EC50
[10] = Table 3, internucleoside linkages, human PBMC overnight, including DOTAP
[11] = Table 3, internucleoside linkages, human PBMC overnight, including DOTAP, read-out: TNF-α EC50
[12] = Table 1, human PBMC overnight culture, with DOTAP, read-out: IFN-α + DOTAP EC50
[13] = Table 2, oligomer length, human PBMC overnight, including DOTAP, read-out: IFN-α EC50
[14] = Table 3, internucleoside linkages, human PBMC overnight, including DOTAP, read-out: IFN-α EC50

5′-CACACACUGCUUAAGCGCUUGCCUGCUUAAGUAGUGUGUG-3′ (RNA, phosphodiester; forms stem-loop structure) [R 1041, all-phosphodiester 40-mer capable of forming a stem-loop structure]
IFN-α induction maximum (human PBMC [1]; overnight culture with human PBMC): 5000 pg/mL | EC50 (human PBMC [1]; overnight culture with human PBMC, read-out: IFN-α induction EC50): < 0.1 µM

5′-GUUGUGGUUGUGGUUGUG-3′ (chemistry not given here) [SEQ ID NO:1, G,U-rich RNA oligonucleotide]
TNF response of human PBMC (human PBMC [2]): responsive

CCCCCCCC
TNF-α response of human PBMC (in words) (human PBMC [2]): did not secrete significant amounts | dose-response of TNF-α secretion (human PBMC [2]): did not appear to secrete significant amounts | IL-12 p40 response of human PBMC (in words) (human PBMC [3]): did not secrete significant amounts | dose-response of IL-12 p40 secretion (human PBMC [3]): appeared not to secrete

CUAGGCAC
dose-response of TNF-α secretion (human PBMC [2]): increasing amounts | dose-response of IL-12 p40 secretion (human PBMC [3]): increasing amounts

CUCGGCAC
dose-response of TNF-α secretion (human PBMC [2]): increasing amounts | dose-response of IL-12 p40 secretion (human PBMC [3]): increasing amounts

G*U*G*U*G*U*G*U [R 1006]
TNF-α + DOTAP max (human PBMC [2]; [4]): 40000 pg/mL | EC50 (human PBMC [2]; [5]): 2.8 µM | TNF-α − DOTAP max (human PBMC [2]; [6]): 2200 pg/mL | EC50 (human PBMC [2]; [7]): 7.8 µM | TNF-α max (human PBMC [2]; [8]): 40000 pg/mL | EC50 (human PBMC [2]; [9]): 2.8 µM | TNF-α max (human PBMC [2]; [10]): 40000 pg/mL | EC50 (human PBMC [2]; [11]): 2.8 µM | IFN-α + DOTAP max (human PBMC [1]; [4]): 5000 pg/mL | EC50 (human PBMC [1]; [12]): 4.5 µM | IFN-α max (human PBMC [1]; [8]): 5000 pg/mL | EC50 (human PBMC [1]; [13]): 4.5 µM | IFN-α max (human PBMC [1]; [10]): 5000 pg/mL | EC50 (human PBMC [1]; [14]): 4.5 µM | EC50 (human PBMC [3]): 1600 nM | IL-12 p40 max (human PBMC [3]): 7000 pg/mL

G*U*G*U*G*U*G*U_dG_dG*dG*dG*dG*dG (rG*rU*rG*rU*rG*rU*rG*rUdGdG*dG*dG*dG*dG) [R 1060]
TNF-α max (human PBMC [2]; Table 4, DNA:RNA conjugates, human PBMC overnight, including DOTAP): 20000 pg/mL | EC50 (human PBMC [2]; Table 4, DNA:RNA conjugates, human PBMC overnight, including DOTAP, read-out: TNF-α EC50): 4.9 µM

G*U_G*U*G*U*G*U [R 1054]
TNF-α max (human PBMC [2]; [10]): 40000 pg/mL | EC50 (human PBMC [2]; [11]): 5.6 µM | IFN-α max (human PBMC [1]; [10]): 3700 pg/mL | EC50 (human PBMC [1]; [14]): 6.7 µM

G*U_G*U_G*U*G*U [R 1055]
TNF-α max (human PBMC [2]; [10]): 20000 pg/mL | EC50 (human PBMC [2]; [11]): > 20 µM

G*U_G*U_G*U_G*U [R 1056]
TNF-α max (human PBMC [2]; [10]): 12000 pg/mL | EC50 (human PBMC [2]; [11]): > 20 µM

GAAGGCAC
TNF-α response of human PBMC (in words) (human PBMC [2]): did not secrete significant amounts | dose-response of TNF-α secretion (human PBMC [2]): did not appear to secrete significant amounts | IL-12 p40 response of human PBMC (in words) (human PBMC [3]): did not secrete significant amounts | dose-response of IL-12 p40 secretion (human PBMC [3]): appeared not to secrete

GUAGGA
TNF-α response of human PBMC (in words) (human PBMC [2]): did not secrete significant amounts | IL-12 p40 response of human PBMC (in words) (human PBMC [3]): little, if any immunostimulatory effect

GUAGGCAC
dose-response of TNF-α secretion (human PBMC [2]): increasing amounts | dose-response of IL-12 p40 secretion (human PBMC [3]): increasing amounts

GUG [R 1052]
IFN-α max (human PBMC [1]; [8]): 800 pg/mL | EC50 (human PBMC [1]; [13]): 5.5 µM | EC50 (human PBMC [3]): > 20000 nM | IL-12 p40 max (human PBMC [3]): 6000 pg/mL

GUGU [R 1051]
EC50 (human PBMC [3]): > 20000 nM | IL-12 p40 max (human PBMC [3]): 14000 pg/mL

GUGUG [R 1050]
TNF-α max (human PBMC [2]; [8]): 40000 pg/mL | EC50 (human PBMC [2]; [9]): 7.6 µM | IFN-α max (human PBMC [1]; [8]): 400 pg/mL | EC50 (human PBMC [1]; [13]): 6.9 µM | EC50 (human PBMC [3]): 3900 nM | IL-12 p40 max (human PBMC [3]): 14000 pg/mL

GUGUGU [R 1049]
TNF-α max (human PBMC [2]; [8]): 30000 pg/mL | EC50 (human PBMC [2]; [9]): 6.7 µM | IFN-α max (human PBMC [1]; [8]): 3400 pg/mL | EC50 (human PBMC [1]; [13]): 4.8 µM | EC50 (human PBMC [3]): 2100 nM | IL-12 p40 max (human PBMC [3]): 8000 pg/mL

GUGUGUG [R 1048]
TNF-α max (human PBMC [2]; [8]): 30000 pg/mL | EC50 (human PBMC [2]; [9]): 2.2 µM | IFN-α max (human PBMC [1]; [8]): 2700 pg/mL | EC50 (human PBMC [1]; [13]): 4.6 µM | EC50 (human PBMC [3]): 2600 nM | IL-12 p40 max (human PBMC [3]): 10000 pg/mL

GUGUGUGU [R 1058]
TNF-α + DOTAP max (human PBMC [2]; [4]): 75000 pg/mL | EC50 (human PBMC [2]; [5]): 0.2 µM | TNF-α − DOTAP max (human PBMC [2]; [6]): 3000 pg/mL | EC50 (human PBMC [2]; [7]): 1 µM | potency compared with R 1006 (cytokine induction in human PBMC) (human PBMC [2]; both with and without DOTAP): more potent | IFN-α + DOTAP max (human PBMC [1]; [4]): 3800 pg/mL | EC50 (human PBMC [1]; [12]): 0.5 µM | IFN-α − DOTAP max (human PBMC [1]; [6]): 1500 pg/mL | EC50 (human PBMC [1]; Table 1, human PBMC overnight culture, without DOTAP, read-out: IFN-α − DOTAP EC50): 0.5 µM

GUGUUUAC
dose-response of TNF-α secretion (human PBMC [2]): increasing amounts | dose-response of IL-12 p40 secretion (human PBMC [3]): increasing amounts

G_U_G_U_G_U_G_U [R 1057]
IFN-α max (human PBMC [1]; [10]): 6000 pg/mL | EC50 (human PBMC [1]; [14]): 0.1 µM

SEQ ID NO:19: G,U-rich DNA oligonucleotide counterpart of SEQ ID NO:1 (GUUGUGGUUGUGGUUGUG; DNA oligonucleotide, linkage chemistry not given here, further chemistry not given here) [reference compound]
TNF response of human PBMC (human PBMC [2]): not
